# According to PubChem BioAssay (NCI):
#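 Test compounds were applied to cells in 96-well plates for 48 hours at 5 doses. GI50 is the concentration that inhibits growth by half. TGI denotes the concentration required for complete inhibition of growth.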
# Tests used:
# Test in all cases: growth of human tumour cells (NCI), 48 h
# LOX IMVI melanoma = test system: LOX IMVI melanoma
# MALME-3M melanoma = test system: MALME-3M melanoma
# NCI-H23 lung = test system: NCI-H23 lung
# OVCAR-8 ovarian = test system: OVCAR-8 ovarian
# PC-3 prostate = test system: PC-3 prostate
# SNB-19 CNS = test system: SNB-19 CNS
# UACC-257 melanoma = test system: UACC-257 melanoma
# T-47D breast = test system: T-47D breast
SMILES,GI50 (LOX IMVI melanoma) [µM],TGI (LOX IMVI melanoma) [µM],TGI (MALME-3M melanoma) [µM],GI50 (NCI-H23 lung) [µM],TGI (NCI-H23 lung) [µM],GI50 (OVCAR-8 ovarian) [µM],TGI (OVCAR-8 ovarian) [µM],GI50 (PC-3 prostate) [µM],TGI (PC-3 prostate) [µM],GI50 (SNB-19 CNS) [µM],TGI (SNB-19 CNS) [µM],GI50 (UACC-257 melanoma) [µM],TGI (UACC-257 melanoma) [µM],GI50 (MALME-3M melanoma) [µM],GI50 (T-47D breast) [µM],TGI (T-47D breast) [µM]
CCOC(=O)c1cc(C(=O)c2cc(OC)c(OC)c(OC)c2)n2ncccc12,2.46,> 100,> 100,0.707,> 100,0.584,> 100,0.289,> 100,0.705,> 100,65.7,> 100,–,–,–
COc1cc(/C=C\c2cc(OC)c(OC)c(OC)c2)cc(N/C=C\C(=O)c2ccc(OC(F)(F)F)cc2)c1OC,5.95,> 100,> 100,4.38,> 100,4.59,> 100,–,–,4.97,> 100,43.3,> 100,14.7,4.16,> 100
COc1ccc(/C=C(/C#N)C(N)=O)c(OC)c1,–,> 100,–,–,> 100,–,> 100,–,> 100,–,> 100,–,> 100,–,–,> 100
COc1cc(C2Cc3ncccc3-c3[nH]c(=O)c4cccnc4c32)cc(OC)c1OC (stereo not drawn),0.452,> 100,> 100,0.999,> 100,0.97,> 100,0.513,> 100,0.823,> 100,> 100,> 100,> 100,–,–
COc1ccc(C(c2cc(OC)c(OC)c(OC)c2)n2ccnc2)cc1O (stereo not drawn),0.525,> 100,–,0.882,> 100,–,–,0.384,> 100,0.532,> 100,1.44,> 100,–,–,–
O=C(Nc1ccc2[nH]nc(-c3ccncc3)c2c1)[C@@H]1CCN(CC(=O)N2CCN(c3ccc(-c4ncccn4)cc3)CC2)C1,0.0539,> 100,–,0.0991,> 100,3.65,> 100,13.7,> 100,> 100,> 100,–,–,–,2.74,> 100
Cc1cc(O)c(=O)cc2c1C[C@H]1CC(C)(C)/C=C/C[C@]3(C)Oc4cc(=O)c(O)cc(C)c4C[C@H]3C[C@H](O)[C@@]1(C)O2,–,–,0.544,< 0.01,0.0345,< 0.01,11.6,< 0.01,23.5,< 0.01,> 67.3,0.0215,0.0895,0.0282,< 0.01,0.0949
Fc1cc2[nH]ncc2c2c3c(c(-c4cn[nH]c4C(F)(F)F)nc12)CCCC3,1.1,3.05,5.41,1.49,6.49,2.04,> 100,1.86,> 100,2.29,9.37,–,–,1.91,1.97,7.39
C=C1CC[C@@H]2[C@](C)(COC(C)=O)[C@H](OC(C)=O)CC[C@@]2(C)[C@@H]1CC(Nc1ccc(S(=O)(=O)NC(C)=O)cc1)C1=CCOC1=O (stereo partly drawn),1.25,2.42,–,5.52,17.4,2.25,8.42,6.56,16.8,8.19,18.9,6.82,16,–,2.46,12
Cc1cc(S(=O)(=O)Nc2nc3ccccc3o2)c(SCc2ccccc2)cc1Cl,14.9,34.8,–,19,40.3,21,50.2,16.1,30.5,21.6,67.8,21.2,50.2,–,–,–
CC(C)C1=CC(=O)C(C)(C2C(O)CC3(C)C4CC=C5C(CCC(OC6OC(CO)C(O)C(O)C6OC6OC(C)C(O)C(O)C6O)C5(C)C)C4(C)C(=O)CC23C)O1 (stereo not drawn),–,–,> 100,–,> 100,–,> 100,–,> 100,–,> 100,–,> 100,–,–,> 100
CC(N)C(Cc1ccc(Cl)cc1)c1ccc(Cl)cc1 (stereo not drawn),5.56,18.9,22.1,13.4,27.8,20.4,52.8,12.8,26.3,14.1,29.5,–,–,8.17,10.7,26
O=C(Oc1cccc2cccnc12)c1cc2c(cc1Cl)SC(N(c1ccc(F)cc1)S(=O)(=O)c1ccc(Br)s1)=NS2(=O)=O,15.8,64.2,49.6,21.2,59,–,–,21.5,73.9,28.8,> 100,–,–,18.8,4.93,38.9
O=C1CSCc2sccc21,–,–,–,–,> 100,–,> 100,–,> 100,–,> 100,–,> 100,–,–,> 100
